Like-named read-outs stand apart in the source and are kept apart here.
Columns and labels:
clinical [1] = conditions: in vivo
[2] = human, in vivo
clinical [3] = conditions: human, in vivo, Urine Results
clinical [4] = conditions: human, in vivo
[5] = human, Average of Urine Samples
[6] = human, Subject A, Urine Results
[7] = human, Subject B, Urine Results

In the case of `CN(C)CCOC(c1ccccc1)c1ccccc1` [Diphenhydramine], the “Subject C, Urine Results” value (clinical [1]; human, 1 day) is reported as 0 ng/m, the “Subject D, Urine Results” value (clinical [1]; human, 1 day) is reported as 0 ng/m and the “Subject C, Urine Results” value (clinical [1]; human, 2 day) is reported as 0 ng/m. The “Subject D, Urine Results” value (clinical [1]; human, 2 day) was 0 ng/m, the “Subject C, Urine Results” value (clinical [1]; human, 3 day) was 0 ng/m and the “Subject D, Urine Results” value (clinical [1]; human, 3 day) was 0 ng/m. The “Subject C, Urine Results” value (clinical [1]; human, 4 day) was 0 ng/m, the “Subject D, Urine Results” value (clinical [1]; human, 4 day) was 0 ng/m and the “Subject C, Urine Results” value (clinical [1]; human, 5 day) was 0 ng/m. The “Subject D, Urine Results” value (clinical [1]; human, 5 day) was 0 ng/m, the “Subject A, Urine Results” value (clinical [1]; human, 6 day) was 2020000 ng/mL and the “Subject C, Urine Results” value (clinical [1]; human, 6 day) was 618000 ng/m. For the same compound, the “Subject D, Urine Results” value (clinical [1]; human, 6 day) was 585000 ng/m, the “Subject C, Urine Results” value (clinical [1]; human, 7 day) was 144000 ng/m and the “Subject D, Urine Results” value (clinical [1]; human, 7 day) was 185000 ng/m. The “Subject C, Urine Results” value (clinical [1]; human, 8 day) was 125000 ng/m, the “Subject D, Urine Results” value (clinical [1]; human, 8 day) was 54100 ng/m and the concentration at 1 day (clinical [1]; [5]) was 0 ng/mL. For the same compound, the concentration at 2 day (clinical [1]; [5]) was 0 ng/mL, the concentration at 3 day (clinical [1]; [5]) was 0 ng/mL and the concentration at 4 day (clinical [1]; [5]) was 0 ng/mL. The concentration at 5 day (clinical [1]; [5]) was 0 ng/mL, the concentration at 6 day (clinical [1]; [5]) was 972000 ng/mL and the concentration at 7 day (clinical [1]; [5]) was 163000 ng/mL. The concentration at 8 day (clinical [1]; [5]) was 88700 ng/mL, the concentration at 1 day (clinical [1]; [6]) was 0 ng/mL and the concentration at 2 day (clinical [1]; [6]) was 0 ng/mL. The concentration at 3 day (clinical [1]; [6]) was 0 ng/mL, the concentration at 4 day (clinical [1]; [6]) was 0 ng/mL and the concentration at 5 day (clinical [1]; [6]) was 0 ng/mL. It also gave a concentration at 1 day (clinical [1]; [7]) of 0 ng/mL, a concentration at 2 day (clinical [1]; [7]) of 0 ng/mL and a concentration at 3 day (clinical [1]; [7]) of 0 ng/mL. It also gave a concentration at 4 day (clinical [1]; [7]) of 0 ng/mL, a concentration at 5 day (clinical [1]; [7]) of 0 ng/mL and a concentration at 6 day (clinical [1]; [7]) of 663000 ng/mL. The concentration at 7 day (clinical [1]; [7]) was 151000 ng/mL, the concentration at 8 day (clinical [1]; [7]) was 120000 ng/mL and the “course of urine levels relative to dosing” value (clinical [1]) was “zero before dosing, peaked the day after dosing and slowly decreased over time”. For the same compound, the “course of urine levels relative to dosing” value [2] was “zero before dosing, peaked the day after dosing and slowly decreased over time”, the concentration at 1 day (clinical [3]; Subject A) was 0 ng/mL and the concentration at 2 day (clinical [3]; Subject A) was 0 ng/mL. It also gave a concentration at 3 day (clinical [3]; Subject A) of 0 ng/mL, a concentration at 4 day (clinical [3]; Subject A) of 0 ng/mL and a concentration at 5 day (clinical [3]; Subject A) of 0 ng/mL. For the same compound, the concentration at 6 day (clinical [3]; Subject A) was 481000 ng/mL, the concentration at 1 day (clinical [3]; Subject B) was 0 ng/mL and the concentration at 2 day (clinical [3]; Subject B) was 0 ng/mL. It also gave a concentration at 3 day (clinical [3]; Subject B) of 0 ng/mL, a concentration at 4 day (clinical [3]; Subject B) of 0 ng/mL and a concentration at 5 day (clinical [3]; Subject B) of 0 ng/mL. The concentration at 6 day (clinical [3]; Subject B) was 0 ng/mL, the concentration at 7 day (clinical [3]; Subject B) was 0 ng/mL and the concentration at 8 day (clinical [3]; Subject B) was 0 ng/mL. It also gave a concentration at 1 day (clinical [3]; Subject C) of 0 ng/mL, a concentration at 2 day (clinical [3]; Subject C) of 0 ng/mL and a concentration at 3 day (clinical [3]; Subject C) of 0 ng/mL. The concentration at 4 day (clinical [3]; Subject C) was 0 ng/mL, the concentration at 5 day (clinical [3]; Subject C) was 0 ng/mL and the concentration at 6 day (clinical [3]; Subject C) was 151000 ng/mL. The concentration at 7 day (clinical [3]; Subject C) was 214000 ng/mL, the concentration at 8 day (clinical [3]; Subject C) was 8840 ng/mL and the concentration at 3 day (clinical [3]; Subject D) was 0 ng/mL. The concentration at 4 day (clinical [3]; Subject D) was 0 ng/mL, the concentration at 5 day (clinical [3]; Subject D) was 0 ng/mL and the concentration at 6 day (clinical [3]; Subject D) was 684000 ng/mL. For the same compound, the concentration at 8 day (clinical [3]; Subject D) was 75300 ng/mL, the concentration at 1 day (clinical [4]) was 0 ng/mL and the concentration at 2 day (clinical [4]) was 0 ng/mL. It also gave a concentration at 3 day (clinical [4]) of 0 ng/mL, a concentration at 4 day (clinical [4]) of 0 ng/mL and a concentration at 5 day (clinical [4]) of 0 ng/mL. For the same compound, the concentration at 6 day (clinical [4]) was 227 ng/mL, the concentration at 7 day (clinical [4]) was 0 ng/mL and the concentration at 8 day (clinical [4]) was 0 ng/mL. For the same compound, the “detection of marker in saliva across subjects” value (clinical [4]) was “not detectable in 2 of the 4 subjects”.

With `NC(N)=Nc1nc(CSCCC(N)=NS(N)(=O)=O)cs1` [Famotidine] the “Subject C, Urine Results” value (clinical [1]; human, 1 day) was 0 ng/m, the “Subject D, Urine Results” value (clinical [1]; human, 1 day) was 0 ng/m and the “Subject C, Urine Results” value (clinical [1]; human, 2 day) was 0 ng/m. The “Subject D, Urine Results” value (clinical [1]; human, 2 day) was 0 ng/m, the “Subject C, Urine Results” value (clinical [1]; human, 3 day) was 0 ng/m and the “Subject D, Urine Results” value (clinical [1]; human, 3 day) was 0 ng/m. The “Subject C, Urine Results” value (clinical [1]; human, 4 day) was 0 ng/m, the “Subject D, Urine Results” value (clinical [1]; human, 4 day) was 0 ng/m and the “Subject C, Urine Results” value (clinical [1]; human, 5 day) was 968 ng/m. The “Subject D, Urine Results” value (clinical [1]; human, 5 day) was 3820 ng/m, the “Subject C, Urine Results” value (clinical [1]; human, 6 day) was 165 ng/m and the “Subject D, Urine Results” value (clinical [1]; human, 6 day) was 260 ng/m. For the same compound, the “Subject C, Urine Results” value (clinical [1]; human, 7 day) was 122 ng/m, the “Subject D, Urine Results” value (clinical [1]; human, 7 day) was 37.3 ng/m and the “Subject C, Urine Results” value (clinical [1]; human, 8 day) was 78.9 ng/m. The “Subject D, Urine Results” value (clinical [1]; human, 8 day) was 19.4 ng/m, the concentration at 1 day (clinical [1]; [5]) was 0 ng/mL and the concentration at 2 day (clinical [1]; [5]) was 0 ng/mL. The concentration at 3 day (clinical [1]; [5]) was 0 ng/mL, the concentration at 4 day (clinical [1]; [5]) was 0 ng/mL and the concentration at 5 day (clinical [1]; [5]) was 1560 ng/mL. The concentration at 6 day (clinical [1]; [5]) was 203 ng/mL, the concentration at 7 day (clinical [1]; [5]) was 64.5 ng/mL and the concentration at 8 day (clinical [1]; [5]) was 43.2 ng/mL. For the same compound, the concentration at 1 day (clinical [1]; [6]) was 0 ng/mL, the concentration at 2 day (clinical [1]; [6]) was 0 ng/mL and the concentration at 3 day (clinical [1]; [6]) was 0 ng/mL. The concentration at 4 day (clinical [1]; [6]) was 0 ng/mL, the concentration at 1 day (clinical [1]; [7]) was 0 ng/mL and the concentration at 2 day (clinical [1]; [7]) was 0 ng/mL. The concentration at 3 day (clinical [1]; [7]) was 0 ng/mL, the concentration at 4 day (clinical [1]; [7]) was 0 ng/mL and the “course of urine levels relative to dosing” value (clinical [1]) was “zero before dosing, peaked the day after dosing and slowly decreased over time”. The “course of urine levels relative to dosing” value [2] was “zero before dosing, peaked the day after dosing and slowly decreased over time”, the concentration at 1 day (clinical [3]; Subject A) was 0 ng/mL and the concentration at 2 day (clinical [3]; Subject A) was 0 ng/mL. For the same compound, the concentration at 3 day (clinical [3]; Subject A) was 0 ng/mL, the concentration at 4 day (clinical [3]; Subject A) was 0 ng/mL and the concentration at 1 day (clinical [3]; Subject B) was 0 ng/mL. It also gave a concentration at 2 day (clinical [3]; Subject B) of 0 ng/mL, a concentration at 3 day (clinical [3]; Subject B) of 0 ng/mL and a concentration at 4 day (clinical [3]; Subject B) of 0 ng/mL. For the same compound, the concentration at 1 day (clinical [3]; Subject C) was 0 ng/mL, the concentration at 2 day (clinical [3]; Subject C) was 0 ng/mL and the concentration at 3 day (clinical [3]; Subject C) was 0 ng/mL. For the same compound, the concentration at 4 day (clinical [3]; Subject C) was 0 ng/mL, the concentration at 5 day (clinical [3]; Subject C) was 3830 ng/mL and the concentration at 6 day (clinical [3]; Subject C) was 429 ng/mL. It also gave a concentration at 7 day (clinical [3]; Subject C) of 390 ng/mL, a concentration at 8 day (clinical [3]; Subject C) of 139 ng/mL and a concentration at 3 day (clinical [3]; Subject D) of 0 ng/mL. It also gave a concentration at 4 day (clinical [3]; Subject D) of 0 ng/mL, a concentration at 5 day (clinical [3]; Subject D) of 5050 ng/mL and a concentration at 6 day (clinical [3]; Subject D) of 1670 ng/mL. For the same compound, the concentration at 8 day (clinical [3]; Subject D) was 27.8 ng/mL, the concentration at 1 day (clinical [4]) was 0 ng/mL and the concentration at 2 day (clinical [4]) was 0 ng/mL. It also gave a concentration at 3 day (clinical [4]) of 0 ng/mL, a concentration at 4 day (clinical [4]) of 0 ng/mL and a concentration at 5 day (clinical [4]) of 5.71 ng/mL. The concentration at 6 day (clinical [4]) was 0.34 ng/mL, the concentration at 7 day (clinical [4]) was 0 ng/mL and the concentration at 8 day (clinical [4]) was 0 ng/mL.

Source: patent US10890591B2, “Methods and dose packs for monitoring medication adherence” (Synapse Biosciences, LLC, priority 2016, dated 2021)
